Measured values from patent US9173869B2, “Mediators of hedgehog signaling pathways, compositions and uses related thereto” (CURIS, INC., priority 1999, dated 2015).

tested on: Hedgehog pathway (Shh-induced Gli-transcription activity) in 10T1/2(s12) cells; assay: Gli-Luc assay (high-throughput screening, Hedgehog-responsive luciferase reporter); type: cell-based; settings: Gli-Luc response, OCT-SHH 0.3 μg/ml, about 24 h
Protocol: Compounds to be tested are dissolved in DMSO to a concentration of 10 mM, and stored at −20° C. To activate the Hedgehog pathway in the assay cells, an octylated (lipid-modified) form of the N-terminal fragment of the Sonic Hedgehog protein (OCT-SHH) is used. This N-terminal SHH fragment is produced bacterially. The octylation involves reaction of the N-terminal fragment, via its amino-terminal cysteine moiety, with octyl maleimide.
Compounds may be tested in the “Gli-Luc” assay below, using the cell line 10T(s12), wherein the cells contain a Hedgehog-responsive reporter construct utilizing Luciferase as the reporter gene. In this way, Hedgehog pathway signaling activity can be measured via the Gli-Luc response.
10t1/2(s12) cells are plated in a 96-well micro-titer plate (MTP) at 20,000 cells/well in full medium [DMEM with 10% FBS]. Then plates are placed in the incubator for incubation overnight (O/N), at 37° C. and 5% CO2. After 24 h, the medium is replaced with Luciferase-assay medium (DMEM with 0.5% FBS). Compounds are thawed and diluted in assay medium at 3:1000 (about 300-fold) resulting in a starting concentration of about 30 μM.
Subsequently, 150 μl of each 30 μM sample is added to the first wells (in triplicate). The MTP samples are then diluted at 3-fold dilutions to a total of seven wells, ultimately resulting in a regiment of seven dilutions in triplicate, for each compound. Next, the protein ligand OCT-SHH is diluted in Luciferase-assay medium and added to each well at a final concentration of 0.3 μg/ml. Plates are then returned to the incubator for further incubation O/N, at 37° C. and 5% CO2. After about 24 h, plates are removed from the incubator and the medium is aspirated/discarded. Wells are washed once with assay buffer [PBS+1 mM Mg^2+ and 1 mM Ca^2+]. Then 50 μl of assay buffer is added to each well. The Luciferase assay reagent is prepared as described by the vendor (LucLite kit from Packard), and 50 μl is added to each well. Plates are incubated at room temperature (RT) for about 30 minutes after which the signals are read, again at RT, on a Topcount (Packard).

Row | IC50 | SMILES
1 | < 0.1 µM | O=C(NCc1nc2ccccc2c(=O)n1-c1ccc(F)cc1)Nc1ccc(Cl)c(C(F)(F)F)c1 [Compound 5, 1-(4-Chloro-3-trifluoromethyl-phenyl)-3-[3-(4-fluoro-phenyl)-4-oxo-3,4-dihydro-quinazolin-2-ylmethyl]-urea]
2 | < 0.5 µM | O=C(NCc1nc2ccccc2c(=O)n1-c1ccc(F)cc1)Nc1cc(Cl)nc(Cl)c1 [Compound 6, 1-(2,6-Dichloro-pyridin-4-yl)-3-[3-(4-fluoro-phenyl)-4-oxo-3,4-dihydro-quinazolin-2-ylmethyl]-urea]
3 | < 5 µM | CC(c1nc2ccccc2c(=O)n1-c1ccc(F)cc1)N(C)C(=O)Nc1cccc(C(F)(F)F)c1 (stereo not drawn) [Compound 11, 2-{1′-[N-(3″-trifluoromethylphenylcarbamoyl)-N-methyl-amino]ethyl}-3-(4′″fluorophenyl)-quinazolin-4-one]
4 | < 10 µM | CC(c1nc2ccccc2c(=O)n1-c1ccc(F)cc1)N(Cc1ccco1)C(=O)Nc1cccc(F)c1 (stereo not drawn) [Compound 31]
5 | < 5 µM | CC(c1nc2ccccc2c(=O)n1-c1ccc(F)cc1)N(C)C(=O)Nc1ccc([N+](=O)[O-])c(C(F)(F)F)c1 (stereo not drawn) [Compound 32]
6 | < 5 µM | CCCN(C(=O)Nc1cccc(Cl)c1)C(C)c1nc2ccccc2c(=O)n1-c1ccc(F)cc1 (stereo not drawn) [Compound 34]
7 | < 5 µM | CCCN(C(=O)Nc1cccc(C(F)(F)F)c1)C(C)c1nc2ccccc2c(=O)n1-c1ccc(F)cc1 (stereo not drawn) [Compound 36]
8 | < 5 µM | CCCN(C(=O)Nc1cccc(OC)c1)C(C)c1nc2ccccc2c(=O)n1-c1ccc(F)cc1 (stereo not drawn) [Compound 38]
9 | < 5 µM | CCC(c1nc2ccccc2c(=O)n1-c1ccc(C)cc1)N(CCc1ccccc1)C(=O)CCCCF (stereo not drawn) [Compound 39]
10 | < 10 µM | CCCCc1ccc(C(=O)N(Cc2ccccc2)C(CC)c2nc3ccccc3c(=O)n2-c2ccc(C)cc2)cc1 (stereo not drawn) [Compound 40]
11 | < 10 µM | CCCCCCCCC(=O)N(CCCCC)C(C)c1nc2ccccc2c(=O)n1-c1ccccc1 (stereo not drawn) [Compound 41]
12 | < 5 µM | CCC(=O)N1CCN(C(CC)c2nc3ccccc3c(=O)n2-c2ccc(C)cc2)C(C)C1 (stereo not drawn) [Compound 42]
13 | < 10 µM | CC(c1nc2ccccc2c(=O)n1-c1ccc(F)cc1)N1CCN(C(=O)Nc2ccc(Cl)c(Cl)c2)CC1 (stereo not drawn) [Compound 43]
14 | < 1 µM | O=C(NCc1nc2ccccc2c(=O)n1-c1ccc(F)cc1)Nc1cccc(C(F)(F)F)c1 [Compound 44]
15 | < 5 µM | CCC(c1nc2ccccc2c(=O)[nH]1)N1CCN(C(=O)Nc2ccc(Cl)c(Cl)c2)C(C)C1 (stereo not drawn) [Compound 45]
16 | < 0.5 µM | CCC(c1nc2ccccc2c(=O)[nH]1)N1CCN(C(=O)c2ccc(-c3ccccc3)cc2)C(C)C1 (stereo not drawn) [Compound 46]
17 | < 5 µM | CCCN(CCC(=O)NC1CCCc2ccccc21)C(=O)c1cc(OC)cc(OC)c1 (stereo not drawn) [Compound 47]
18 | < 0.5 µM | CCC(C)N(CCC(=O)NC1CCCc2ccccc21)C(=O)c1cccc2ccccc12 (stereo not drawn) [Compound 48]
19 | < 1 µM | CCC(C)N(CCC(=O)NC1CCCc2ccccc21)C(=O)COc1ccc(Cl)cc1 (stereo not drawn) [Compound 49]
20 | < 1 µM | O=C(Cc1cccc(C(F)(F)F)c1)NCCc1nc2ccccc2c(=O)n1-c1ccc(F)cc1 [Compound 50]
21 | < 5 µM | CC(c1nc2ccccc2c(=O)n1-c1ccc(F)cc1)N(C)C(=O)Nc1cccc(C#N)c1 (stereo not drawn) [Compound 51]

Row | IC50 | SMILES
22 | < 1 µM | CC(c1nc2ccccc2c(=O)n1-c1ccc(F)cc1)N(C)C(=O)Nc1cccc(SC(F)(F)F)c1 (stereo not drawn) [Compound 52]
23 | < 1 µM | CC(c1nc2ccccc2c(=O)n1-c1ccc(F)cc1)N(C)C(=O)Nc1ccc(Cl)c(Cl)c1 (stereo not drawn) [Compound 53]
24 | < 5 µM | CC(c1nc2ccccc2c(=O)n1-c1ccc(F)cc1)N(C)C(=O)Nc1ccc(C(F)(F)F)cc1 (stereo not drawn) [Compound 54]
25 | < 5 µM | CC(c1nc2ccccc2c(=O)n1-c1ccc(F)cc1)N(C)C(=O)Nc1cccc(F)c1 (stereo not drawn) [Compound 55]
26 | < 10 µM | CC(c1nc2ccccc2c(=O)n1-c1ccc(F)cc1)N(C)C(=O)Nc1ccc(-c2ccccc2)cc1 (stereo not drawn) [Compound 56]
27 | < 10 µM | CC(C)c1cccc(NC(=O)N(C)C(C)c2nc3ccccc3c(=O)n2-c2ccc(F)cc2)c1 (stereo not drawn) [Compound 57]
28 | < 5 µM | CC(c1nc2ccccc2c(=O)n1-c1ccc(F)cc1)N(C)C(=O)Nc1cc(Cl)nc(Cl)c1 (stereo not drawn) [Compound 58]
29 | < 5 µM | Cc1c(NC(=O)N(C)C(C)c2nc3ccccc3c(=O)n2-c2ccc(F)cc2)cccc1[N+](=O)[O-] (stereo not drawn) [Compound 59]
30 | < 5 µM | CC(c1nc2ccccc2c(=O)n1-c1ccc(F)cc1)N(C)C(=O)Nc1ccc(SC(F)(F)F)cc1 (stereo not drawn) [Compound 60]
31 | < 1 µM | CC(c1nc2ccccc2c(=O)n1-c1ccc(F)cc1)N(C)C(=O)Nc1ccc(Cl)c(C(F)(F)F)c1 (stereo not drawn) [Compound 61]
32 | < 10 µM | CCOC(=O)c1ccccc1NC(=O)N(C)C(C)c1nc2ccccc2c(=O)n1-c1ccc(F)cc1 (stereo not drawn) [Compound 63]
33 | < 10 µM | CC(c1nc2ccccc2c(=O)n1-c1ccc(F)cc1)N(C)C(=O)Nc1ccc([N+](=O)[O-])cc1Cl (stereo not drawn) [Compound 64]
34 | < 10 µM | CC(c1nc2ccccc2c(=O)n1-c1ccc(F)cc1)N(C)C(=O)Nc1ccc(Cl)cc1[N+](=O)[O-] (stereo not drawn) [Compound 66]
35 | < 5 µM | Cc1c(NC(=O)NCc2nc3ccccc3c(=O)n2-c2ccc(F)cc2)cccc1SC(F)(F)F [Compound 67]
36 | < 1 µM | O=C(NCc1nc2ccccc2c(=O)n1-c1ccc(F)cc1)Nc1ccc(Cl)c(Cl)c1 [Compound 68]
37 | < 0.5 µM | O=C(NCc1nc2ccccc2c(=O)n1-c1ccc(F)cc1)Nc1ccc(Cl)c([N+](=O)[O-])c1 [Compound 69]
38 | < 10 µM | COc1cccc(NC(=O)NCc2nc3ccccc3c(=O)n2-c2ccc(F)cc2)c1C [Compound 71]
39 | < 5 µM | CC(NC(=O)Nc1cccc(C(F)(F)F)c1)c1nc2ccccc2c(=O)n1-c1ccc(F)cc1 (stereo not drawn) [Compound 73]
40 | < 5 µM | O=C(NCCCc1nc2ccccc2c(=O)n1-c1ccc(F)cc1)Nc1cccc(C(F)(F)F)c1 [Compound 74]
41 | < 5 µM | O=C(Nc1cccc(C(F)(F)F)c1)NC(c1nc2ccccc2c(=O)n1-c1ccc(F)cc1)C1CC1 (stereo not drawn) [Compound 75]

Row | SMILES | IC50
42 | CC(c1nc2ccccc2c(=O)n1-c1ccc(F)cc1)N(C)C(=O)Nc1ccc([N+](=O)[O-])c(Cl)c1 (stereo not drawn) [Compound 62] | < 1 µM
43 | CCOOC(=O)c1cccc(NC(=O)N(C)C(C)c2nc3ccccc3c(=O)n2-c2ccc(F)cc2)c1 (stereo not drawn) [Compound 65] | < 10 µM

tested on: murine BCC lesions; assay: Cultured skin punches with BCC lesions from UV-irradiated Ptc-knockout heterozygote mouse (X-gal staining); type: cell-based; settings: 10 μM versus 5 μM in culture medium, 6 days
Protocol: Mouse 456 is a Ptc-knockout heterozygote that received UV irradiation for 6 months. The mouse developed many small BCC lesions, which were blue after X-gal staining. The mouse was sacrificed and the skin was excised with a 2 mm skin punch. Those skin punches were then cultured for 6 days. […] The effect was more obvious when 10 μM of 11 was added to the culture medium instead of 5 μM of 11.

Row | SMILES | effect on BCC lesions at 10 μM instead of 5 μM
44 | CC(c1nc2ccccc2c(=O)n1-c1ccc(F)cc1)N(C)C(=O)Nc1cccc(C(F)(F)F)c1 (stereo not drawn) [Compound 11, 2-{1′-[N-(3″-trifluoromethylphenylcarbamoyl)-N-methyl-amino]ethyl}-3-(4′″fluorophenyl)-quinazolin-4-one] | more obvious

same assay, conditions: skin punches of mouse 456 cultured for 6 days, compared to vehicle (DMSO), 5 or 10 μM

Row | SMILES | number and size of BCC lesions (blue spots)
45 | CC(c1nc2ccccc2c(=O)n1-c1ccc(F)cc1)N(C)C(=O)Nc1cccc(C(F)(F)F)c1 (stereo not drawn) [Compound 11, 2-{1′-[N-(3″-trifluoromethylphenylcarbamoyl)-N-methyl-amino]ethyl}-3-(4′″fluorophenyl)-quinazolin-4-one] | can decrease the number and size of BCC lesions

tested on: ptc-1 lacZ reporter gene expression in lung explants; assay: E12.5 ptc-1 (d11) lacZ lung explant culture, lacZ staining; type: cell-based, mouse; settings: lung explants grown 48 hrs, versus untreated control
Protocol: In yet another experiment, E12.5 old ptc-1 (d11) lacZ lungs were harvested and transgenic embryos identified by lacZ detection using tails. Lung explants were grown submerged in mouse explant medium (DMEM based, additives optimized for the culture of mouse lungs) for 48 hrs, fixed in lacZ fixative, rinsed and stained for lacZ O/N at 37° C. Control tissue was untreated, while test tissue was treated with 11. Results are depicted in FIG. 34: (A) Untreated control. Strong lacZ expression can be observed in distal and proximal mesenchyme.

Row | SMILES | lacZ reporter gene expression
46 | CC(c1nc2ccccc2c(=O)n1-c1ccc(F)cc1)N(C)C(=O)Nc1cccc(C(F)(F)F)c1 (stereo not drawn) [Compound 11, 2-{1′-[N-(3″-trifluoromethylphenylcarbamoyl)-N-methyl-amino]ethyl}-3-(4′″fluorophenyl)-quinazolin-4-one] | significantly decreased reporter gene expression

tested on: gli-1 mRNA in ptc-null cells; assay: Ptc-null assay (RT-PCR / quantitative real-time PCR of gli-1 mRNA); type: cell-based, mouse; settings: ptc-null cells cultured 3 days, 1 μM of test compound, compared with vehicle
Protocol: Ptc-null cells were cultured for 3 days in the presence of vehicle; jervine, a known Patched pathway antagonist (i) used here as a positive control; or 1 μM of a test compound. Total ribonucleic acid (RNA) was isolated from the cells and used for reverse transcriptase-polymerase chain reaction (RT-PCR). […] The gli-1 and actin mRNA samples were then loaded on 1.5% agarose gel and were detected by staining with ethidium bromide. The same samples were analyzed by the quantitative real-time polymerase chain reaction method to quantify the levels of gli-1 mRNA.

Row | SMILES | expression of gli-1
47 | CC(c1nc2ccccc2c(=O)n1-c1ccc(F)cc1)N(C)C(=O)Nc1cccc(C(F)(F)F)c1 (stereo not drawn) [Compound 11, 2-{1′-[N-(3″-trifluoromethylphenylcarbamoyl)-N-methyl-amino]ethyl}-3-(4′″fluorophenyl)-quinazolin-4-one] | no significant decrease
48 | CCCN(CCC(=O)NC1CCCc2ccccc21)C(=O)c1cc(OC)cc(OC)c1 (stereo not drawn) [Compound 47] | no significant decrease
49 | CCC(C)N(CCC(=O)NC1CCCc2ccccc21)C(=O)c1cccc2ccccc12 (stereo not drawn) [Compound 48] | no significant decrease
50 | CCC(C)N(CCC(=O)NC1CCCc2ccccc21)C(=O)COc1ccc(Cl)cc1 (stereo not drawn) [Compound 49] | no significant decrease

same assay, conditions: ptc-null cells cultured 3 days, positive control, compared with vehicle

Row | SMILES | expression of gli-1 mRNA
51 | CC1=C2C(=O)[C@H]3[C@@H](CC=C4C[C@@H](O)CC[C@@]43C)[C@@H]2CC[C@]12O[C@@H]1C[C@H](C)CN[C@H]1[C@H]2C [jervine, reference compound] | significantly decreased
